Results: patent US20180353565A1, “PHARMACEUTICAL FORMULATIONS AND THEIR USE FOR THE TREATMENT OF RETINITIS PIGMENTOSA” (KALEYDE PHARMACEUTICALS AG, priority 2016, published 2018)
Where a SMILES comes first, the peptide text is derived from it. [ ]: non-standard residue; d: D form. αMeF = C[C@](N)(Cc1ccccc1)C(=O)O; Aib = CC(C)(N)C(=O)O

Experiments:
[1] = tested on: mice with oxygen-induced retinopathy; conditions: cited from earlier work
[2] = tested on: RCS/Kyo rat (Royal College of Surgeons rat); test: Efficacy in RCS/KYO rats by intravitreal or subcutaneous administration (retinal and ONL thickness under the microscope); format: in vivo; conditions: for Retinal thickness % of control / Thickness of ONL % of control / Thickness of ONL (outer nuclear layer): age 49 days; for Retinal thickness: measured at age 49 days
Text: The RCS/Kyo rat (Royal College of Surgeons rat) represents the most commonly used model in the study of this eye disease. RCS rats present retinal degeneration that makes them the ideal model for the study of this disease. […] The epithelial cells of the retina in these animals are unable to ingest the […] photoreceptor cells, and those photoreceptors therefore die.
45 male and female RCS/Kyo rats, aged 14/21 days, were employed, using the tetrapeptide Ac-Arg-Aib-Arg-α(Me)Phe-NH2, formulated as reported in example 1A, at the concentration of 1.2 mg/mL for intravitreal injection, or 7.6 mg/mL for subcutaneous injection.
The treatment regimen used is set out below:
After euthanasia of the rats at the age of 49 days, the thickness of the retina in the various groups was measured under the microscope:
The thickness of the outer layer of granules (outer nuclear layer, ONL, cell body of cones and rods) was also measured.

[3] = Plasma pharmacokinetics after single subcutaneous administration (LC-MS); format: in vivo, Sprague-Dawley rats; conditions: Dose 16.6 mg/kg s.c.
Experimental: (§1) 10 Male Sprague-Dawley rats were used. The rats were divided into two groups of 5 for determination of plasma pharmacokinetics and tissue distribution, by single subcutaneous administration at the dose of 16.6 mg/kg in a volume of 1 mL/kg. Blood samples were taken after 0.25, 0.5, 1, 2, 4, 6, 8 and 24 hours; subsequently, in the second group of rats, tissue samples were taken at Tmax. The kinetic equation, Cmax, Tmax, plasma half-life and AUC were determined. The concentrations were measured by LC-MS.

[4] = Tissue distribution at Tmax after single subcutaneous administration (LC-MS); format: in vivo, Sprague-Dawley rats; conditions: at Tmax after 16.6 mg/kg s.c., rat
Experimental: as §1
As will be seen, the kidney is the organ with the highest values compared with the other tissues. However, in the eyes, which represent the target tissue, the peptide is present with a tissue plasma ratio of about 5.

[5] = intravitreal injection, OIR mice
[6] = group S-ivt-sd-t: intravitreal, therapeutic, single dose 4 μg at day 22
[7] = group S-sc-rd-p: subcutaneous, preventive, 1800 μg from day 14, 6 times a week for 5 weeks
[8] = group S-sc-rd-t: subcutaneous, therapeutic, 1800 μg from day 22, 6 times a week for 4 weeks
[9] = male, Sprague-Dawley, sc, rat plasma

Kelim ([3]; rat plasma): 0.309 ± 0.029 h⁻¹ | Tmax ([3]; male, Sprague-Dawley, rat, plasma, sc, 16.6 mg/kg): ~2 h | AUC(0-inf) [3, 9]: 39300 ± 4010 ng·h/mL | AUC(0-t) [3, 9]: 39300 ± 3990 ng·h/mL | Cmax [3, 9]: 5910 ± 1180 ng/mL | half-life [3, 9]: 2.26 ± 0.226 h | Tissue plasma ratio, eyes [4]: about 5
Structure (SMILES): CC(=O)N[C@@H](CCCNC(=N)N)C(=O)NC(C)(C)C(=O)N[C@@H](CCCNC(=N)N)C(=O)N[C@@](C)(Cc1ccccc1)C(N)=O [Ac-Arg-Aib-Arg-α(Me)Phe-NH2] (Ac-R[Aib]R[αMeF]-NH2)
Effect on inflammatory markers [1, 5]: reducing the anti-inflammatory markers | Effect on retinal neovascularization [1, 5]: reducing retinal neovascularization | Effect on the blood-retinal barrier [1, 5]: repairing dysfunctions of the blood-retinal barrier | Effect on the structure of the retina (words, literature) ([1]; reported in IOVS (2015), 56(4) 2392-2407): does not modify the structure of the retina | Effect on retinal structure ([2]; RCS/KYO rats): restore nearly all the strongly deteriorated retinal structure | Change of retinal thickness ([2]; all the treated groups, preventive treatment to a lesser extent): considerable increase in retinal thickness | Retinal thickness % of control [2, 6]: 110 % of control | Thickness of ONL % of control [2, 6]: 134 % of control | Thickness of ONL (outer nuclear layer) [2, 6]: 12.09 μm | Retinal thickness ([2]; group S-ivt-sd-t: intravitreal, therapeutic, single dose 4 μg at day 22 after birth): 132.08 μm | Retinal thickness % of control [2, 7]: 130 % of control | Thickness of ONL % of control [2, 7]: 196 % of control | Thickness of ONL (outer nuclear layer) [2, 7]: 17.64 μm | Retinal thickness [2, 7]: 155.25 μm | Retinal thickness % of control [2, 8]: 153 % of control | Thickness of ONL % of control [2, 8]: 196 % of control | Thickness of ONL (outer nuclear layer) [2, 8]: 17.62 μm | Retinal thickness [2, 8]: 182.67 μm | Change of ONL thickness ([2]; repeated subcutaneous doses): double the thickness of the layer | Increase of the photoreceptor layer ([2]; single dose of 4 μg per eye): 34%
